Reference: ChEMBL document CHEMBL1201862, “PubChem BioAssay data set” (2004)
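Exposure lasted 48 hours, with cells grown in 96-well plates and compounds tested at five concentrations. Abbreviation: GI50, concentration required for 50% inhibition of growth.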 Activity calls are given as the source filed them. Cut-off read from the data, not from the text of the source: active = GI50 up to about 1.1 µM and inactive = higher.

Columns and labels:
Experiment in all cases: NCI anticancer screen, dose series, 48 h
[1] = tested on: LXFL 529
[2] = tested on: HL-60
[3] = tested on: SNB-75
[4] = tested on: M14
[5] = tested on: CAKI-1
[6] = tested on: SW-620
[7] = tested on: UO-31
[8] = tested on: SK-MEL-5
[9] = tested on: OVCAR-3
[10] = tested on: HOP-62
[11] = tested on: SK-MEL-2
[12] = tested on: MOLT-4
[13] = tested on: HOP-92
[14] = tested on: SK-OV-3
[15] = tested on: KM12
[16] = tested on: HCC 2998
[17] = tested on: COLO 205
[18] = tested on: RXF 631
[19] = tested on: DLD-1
[20] = tested on: 786-0
[21] = tested on: IGROV-1
[22] = tested on: NCI-H522
[23] = tested on: OVCAR-4
[24] = tested on: EKVX
[25] = tested on: SN12C
[26] = tested on: DMS-114
[27] = tested on: SF-295
[28] = tested on: HT-29
[29] = tested on: SNB-19
[30] = tested on: A549
[31] = tested on: OVCAR-8
[32] = tested on: M19-MEL
[33] = tested on: NCI-H460
[34] = tested on: RXF 393
[35] = tested on: CCRF-CEM
[36] = tested on: HCT-15
[37] = tested on: LOX IMVI
[38] = tested on: SF-539
[39] = tested on: HCT-116
[40] = tested on: NCI-H226
[41] = tested on: HOP-18
[42] = tested on: NCI-H23
[43] = tested on: SK-MEL-28
[44] = tested on: DMS-273
[45] = tested on: UACC-257
[46] = tested on: SF-268
[47] = tested on: KM-20L2
[48] = tested on: ACHN
[49] = tested on: Malme-3M
[50] = tested on: UACC-62
[51] = tested on: TK-10
[52] = tested on: K562
[53] = tested on: U-251
[54] = tested on: SR
[55] = tested on: SNB-78
[56] = tested on: XF498
[57] = tested on: OVCAR-5
[58] = tested on: A498
[59] = tested on: RPMI-8226

## CC(C)(C)OC(=O)N[C@H]1CC(=O)c2ccccc2N(CC(=O)O)C1=O
[1]
  GI50: > 100 µM (inactive)
[2]
  GI50: > 100 µM (inactive)
[3]
  GI50: 81.1 µM (inactive)
[4]
  GI50: > 100 µM (inactive)
[5]
  GI50: > 100 µM (inactive)
[6]
  GI50: > 100 µM (inactive)
[7]
  GI50: > 100 µM (inactive)
[8]
  GI50: > 100 µM (inactive)
[9]
  GI50: > 100 µM (inactive)
[10]
  GI50: > 100 µM (inactive)
[11]
  GI50: > 100 µM (inactive)
[12]
  GI50: > 100 µM (inactive)
[13]
  GI50: > 100 µM (inactive)
[14]
  GI50: > 100 µM (inactive)
[15]
  GI50: > 100 µM (inactive)
[16]
  GI50: > 100 µM (inactive)
[17]
  GI50: > 100 µM (inactive)
[18]
  GI50: > 100 µM (inactive)
[19]
  GI50: > 100 µM (inactive)
[20]
  GI50: > 100 µM (inactive)
[21]
  GI50: > 100 µM (inactive)
[22]
  GI50: > 100 µM (inactive)
[23]
  GI50: > 100 µM (inactive)
[24]
  GI50: > 100 µM (inactive)
[25]
  GI50: > 100 µM (inactive)
[26]
  GI50: > 100 µM (inactive)
[27]
  GI50: > 100 µM (inactive)
[28]
  GI50: > 100 µM (inactive)
[29]
  GI50: > 100 µM (inactive)
[30]
  GI50: > 100 µM (inactive)
[31]
  GI50: > 100 µM (inactive)
[32]
  GI50: > 100 µM (inactive)
[33]
  GI50: > 100 µM (inactive)
[34]
  GI50: > 100 µM (inactive)
[35]
  GI50: > 100 µM (inactive)
[36]
  GI50: > 100 µM
[37]
  GI50: > 100 µM (inactive)
[38]
  GI50: > 100 µM (inactive)
[39]
  GI50: 26.5 µM (inactive)
[40]
  GI50: > 100 µM (inactive)
[41]
  GI50: > 100 µM (inactive)
[42]
  GI50: > 100 µM (inactive)
[43]
  GI50: > 100 µM (inactive)
[44]
  GI50: > 100 µM (inactive)
[45]
  GI50: > 100 µM (inactive)
[46]
  GI50: > 100 µM (inactive)
[47]
  GI50: > 100 µM (inactive)
[48]
  GI50: > 100 µM (inactive)
[49]
  GI50: 19.9 µM (inactive)
[50]
  GI50: > 100 µM (inactive)
[51]
  GI50: > 100 µM (inactive)

## COC(=O)C(=O)C(C(=O)C=C(C)C)C(=O)C(=O)Nc1ccc(C)cc1C (stereo not given)
[1]
  GI50: > 100 µM (inactive)
[52]
  GI50: > 100 µM (inactive)
[2]
  GI50: > 100 µM (inactive)
[53]
  GI50: > 100 µM (inactive)
[3]
  GI50: > 100 µM (inactive)
[4]
  GI50: > 100 µM (inactive)
[5]
  GI50: > 100 µM (inactive)
[54]
  GI50: > 100 µM (inactive)
[55]
  GI50: > 100 µM (inactive)
[6]
  GI50: > 100 µM (inactive)
[7]
  GI50: > 100 µM (inactive)
[8]
  GI50: > 100 µM (inactive)
[9]
  GI50: > 100 µM (inactive)
[10]
  GI50: > 100 µM (inactive)
[11]
  GI50: > 100 µM (inactive)
[12]
  GI50: > 100 µM (inactive)
[56]
  GI50: > 100 µM (inactive)
[14]
  GI50: > 100 µM (inactive)
[15]
  GI50: > 100 µM (inactive)
[16]
  GI50: > 100 µM (inactive)
[17]
  GI50: > 100 µM (inactive)
[19]
  GI50: > 100 µM (inactive)
[20]
  GI50: > 100 µM (inactive)
[21]
  GI50: > 100 µM (inactive)
[22]
  GI50: > 100 µM (inactive)
[57]
  GI50: > 100 µM (inactive)
[23]
  GI50: > 100 µM (inactive)
[24]
  GI50: > 100 µM (inactive)
[25]
  GI50: > 100 µM (inactive)
[26]
  GI50: > 100 µM (inactive)
[27]
  GI50: > 100 µM (inactive)
[28]
  GI50: > 100 µM (inactive)
[29]
  GI50: > 100 µM (inactive)
[30]
  GI50: > 100 µM (inactive)
[31]
  GI50: > 100 µM (inactive)
[32]
  GI50: > 100 µM (inactive)
[33]
  GI50: > 100 µM (inactive)
[34]
  GI50: > 100 µM (inactive)
[35]
  GI50: > 100 µM (inactive)
[36]
  GI50: > 100 µM
[37]
  GI50: > 100 µM (inactive)
[38]
  GI50: > 100 µM (inactive)
[58]
  GI50: > 100 µM (inactive)
[39]
  GI50: > 100 µM (inactive)
[40]
  GI50: > 100 µM (inactive)
[59]
  GI50: > 100 µM (inactive)
[41]
  GI50: > 100 µM (inactive)
[42]
  GI50: > 100 µM (inactive)
[43]
  GI50: > 100 µM (inactive)
[44]
  GI50: > 100 µM (inactive)
[45]
  GI50: > 100 µM (inactive)
[46]
  GI50: > 100 µM (inactive)
[47]
  GI50: > 100 µM (inactive)
[48]
  GI50: > 100 µM (inactive)
[49]
  GI50: > 100 µM (inactive)
[50]
  GI50: > 100 µM (inactive)
[51]
  GI50: > 100 µM (inactive)

## O=P(O)(O)C1CCCC(P(=O)(O)O)N1 (stereo not given)
[2]
  GI50: > 100 µM (inactive)
[53]
  GI50: > 100 µM (inactive)
[4]
  GI50: > 100 µM (inactive)
[54]
  GI50: > 100 µM (inactive)
[55]
  GI50: > 100 µM (inactive)
[7]
  GI50: > 100 µM (inactive)
[10]
  GI50: > 100 µM (inactive)
[12]
  GI50: > 100 µM (inactive)
[13]
  GI50: > 100 µM (inactive)
[14]
  GI50: > 100 µM (inactive)
[15]
  GI50: > 100 µM (inactive)
[18]
  GI50: > 100 µM (inactive)
[21]
  GI50: > 100 µM (inactive)
[22]
  GI50: > 100 µM (inactive)
[57]
  GI50: > 100 µM (inactive)
[24]
  GI50: > 100 µM (inactive)
[26]
  GI50: > 100 µM (inactive)
[27]
  GI50: > 100 µM (inactive)
[28]
  GI50: > 100 µM (inactive)
[29]
  GI50: > 100 µM (inactive)
[30]
  GI50: > 100 µM (inactive)
[31]
  GI50: > 100 µM (inactive)
[32]
  GI50: > 100 µM (inactive)
[33]
  GI50: > 100 µM (inactive)
[34]
  GI50: > 100 µM (inactive)
[35]
  GI50: > 100 µM (inactive)
[58]
  GI50: > 100 µM (inactive)
[39]
  GI50: > 100 µM (inactive)
[40]
  GI50: > 100 µM (inactive)
[42]
  GI50: > 100 µM (inactive)
[43]
  GI50: > 100 µM (inactive)
[44]
  GI50: > 100 µM (inactive)
[45]
  GI50: > 100 µM (inactive)
[46]
  GI50: > 100 µM (inactive)
[47]
  GI50: > 100 µM (inactive)
[48]
  GI50: > 100 µM (inactive)
[51]
  GI50: > 100 µM (inactive)
